The subject of series [1] is U87MG glioblastoma cells. Briefly: U87MG in vitro cell migration assay. The class given is cell-based, human. The protocol:
U87MG cells were cultured in minimum essential medium (MEM) supplemented with 10% fetal bovine serum (FBS). Eight micron migration plates (24 well) were coated with denatured collagen I (BD, cat# 354326) at 10 μg/ml. Following overnight incubation at 4°C, the lower chambers were washed three times with phosphate buffered saline (PBS) followed by blocking with 1% bovine serum albumin (BSA) for 1 hour. The chambers were washed 3 times in PBS then 200 μl of migration buffer [MEM containing 5% blocking solution (Sigma, cat# 2393), […]] was added. […] After 1 hour of culture, 10 ng/ml of recombinant human (rh) TGFβ1 was added to upper chambers and cells were allowed to migrate in a 37°C incubator for 48 hours. The non-migrated cells were aspirated and wiped off the upper chamber with a cotton swab. The inserts were washed 3 times with PBS and the chambers transferred to new […]. The chambers were fixed with 500 μl of 10% neutral buffered formalin (NBF) for 20 minutes followed by three washes with PBS. The cells were stained with Hoechst at 1:10,000 for 20 minutes in the dark then washed three times with PBS. The membranes were cut with a scalpel, placed on a slide and the pictures were taken using Eclipse 90i Microscope. Image Pro-Analyzer 7.0 was used for analysis of migrated cells.

The subject of series [2] is pSMAD in Mv1Lu cells. The experiment in a line: Endogenous pSMAD inhibition in TGFβ1 stimulated Mv1Lu cells. The class given is cell-based, mink. The conditions noted are these: data not shown.
The conditions of series [3]: clinical; cited from earlier work.
The test system of series [4] is pSMAD in EMT6-LM2 cells. The experiment in a line: TGFβ1-induced pSMAD inhibition in EMT6-LM2 cells (ELISA). (In general: In an ELISA, binding on a coated surface is turned into a signal by an enzyme label.)
Procedure: Next, the samples were homogenized for 15 seconds using Bioruptor® UCD-200 by Diagenode at medium power.
Total and pSMAD2/3 levels were assessed independently on two separate ELISA plates. […] To the pSMAD ELISA plate, 100 μL per well of lysate (ranging from 0.04-0.1 mg total protein) was added to the appropriate wells. To the total SMAD ELISA plate, 10% of the total protein that was added to the pSMAD, was added to the appropriate wells (0.004-0.01 mg protein final). A standard curve was also added to both ELISA plates (p- and tSMAD plates) using recombinant HIS-pSMAD2 protein (Eli Lilly and Company). Plates were incubated overnight then washed four times with wash buffer. […] Following one hour of incubation, plates were washed and developed using 3, 3’, 5, 5’-tetramethylbenzidine substrate (TMB; Surmodics/BioFX #TMBW-0100-01) and absorbance (OD) was read at 450 nm on a plate reader.
Percent inhibition of normalized pSMAD2 levels was calculated by first determining the ratio of tSMAD to pSMAD values for the vehicle group. […]
The test system of series [5] is pSMAD in Calu6 tumors.
Procedure: For in vivo measurement of tumor cell pSMAD activity, tumors were harvested from mice at the indicated time points post-treatment, snap frozen in liquid nitrogen, then pulverized in lysis buffer [EDTA 5 mM, EGTA 5 mM, sodium pyrophosphate 30 mM, sodium chloride 6.7 mM, sodium fluoride 50 mM, and 1% triton in water, pH 7.4 with protease and phosphatase inhibitors (Sigma, p8340, p5726, p0044) and sodium orthovanadate 2.5 mM]. Protein concentration was estimated with DC protein assay kit (BioRad).
Percent inhibition of normalized pSMAD2 levels was calculated by first determining the ratio of tSMAD to pSMAD values for the vehicle group. […] Percent inhibition for compound treated groups was determined relative to the minimum pSMAD inhibition of the vehicle group using the formula: [(100- (normalized pSMAD in the experimental treatment group/normalized pSMAD in the vehicle treated group)]. IC50 of pSMAD inhibition was calculated for the data using non-linear regression to fit the standard four parameter logistic model using GraphPad Prism 6.
Female athymic nu/nu mice or immune competent syngenic BALB/c mice (Charles River or Taconic Farms, respectively, 22 to 28 grams) were maintained in microisolator cages, received food and water ad libitum, and were quarantined for 1 week before experimental manipulation. Sub-confluent Calu6 human non-small cell lung cancer (NSCLC) cells were injected subcutaneously in the flank of nude mice (1x 10^7cells/per animal) in 0.2 mL of culture medium mixed with Matrigel (BD Biosciences, 1:1 v/v). EMT6-LM2 murine triple negative breast cancer tumor cells (5 × 10^5 cells/per animal in the absence of matrigel) were implanted on the flank of BALB/c mice. EMT6-LM2 cells were generated from parental EMT6 cells which were passaged twice from spontaneous lung metastases (LM) following subcutaneous growth. When the tumor volume reached ~250 mm^3, mice were randomized and separated into treatment groups.
Tumors and plasma were collected 2 hours post dosage for analysis of pSMAD and compound levels.
Tumors and plasma were collected at the indicated time points (0.5, 1, 1.5, 2, 4, 8, and 16 hours) for analysis of pSMAD and compound levels.
Percent target inhibition was calculated as described above then was modeled as a function of either dose or plasma concentration.
Series [6] has as its system TGFβ-responsive p3TP-Lux reporter in Mv1Lu cells. The experiment in a line: Mink lung epithelial cell p3TP-Lux reporter assay. Conditions: TGFβ1-mediated luciferase production, read-out: IC50 (SE), Mv1Lu p3TP-Lux. The class given is cell-based. The protocol: The TGFβ-responsive p3TP-Lux reporter construct was stably expressed in Mv1Lu mink lung epithelial cells. […] Media was replaced with 0.5% FBS/DMEM and incubated at 37C/5% CO2 for 2 hours. […] The following day, cells were washed with PBS and lysed with lysis buffer by incubating for 20 to 30 minutes at room temperature. Counts were taken on the MicroBeta JET by injecting 50 μL Luciferase Assay Reagent II (PROMEGA), delay for 1 second and count for 5 seconds. Curve fitting utilized a 4-parameter logistic model and absolute IC50 values were reported.

SMILES strings stand for the structures. Where two headings read alike, the source gives them in different places.

On to `Cc1cccc(-c2nn3c(c2-c2ccnc4ccc(C(N)=O)cc24)CCC3)n1.O` [galunisertib, 4-[2-(6-methylpyridin-2-yl)-5,6-dihydro-4H-pyrrolo[1,2-b]pyrazol-3-yl]quinoline-6-carboxamide monohydrate], for which the TGFβ1-enhanced cell migration result in series [1] (1, 3, 10 μM, rhTGFβ1 10 ng/ml, 48 hours) was “blocked cell migration in a dose dependent manner”. In addition, in series [1] (galunisertib alone), the “baseline migration in the absence of exogenous TGFβ1” value is “reduced baseline migration”. The IC50 in series [2] was determined as 176 nM; in series [4] (Mus musculus, read-out: IC50, pSMAD activity, EMT6-LM2, TGFβ1 10 ng/ml, ELISA), 894 nM; in series [4] (read-out: IC50, pSMAD activity, EMT6-LM2, TGFβ1 10 ng/ml, ELISA) it was 890 nM; in series [6] (Mv1Lu), 251 nM; in series [6] it was 250 nM. In series [3], the “tolerability as oral cancer therapy” value is given as “well-tolerated”. In addition, in series [5] (Calu6, at 30 minutes), the “pSMAD inhibition at maximum plasma exposure” value was ~ 70%. Further, in series [5] (Calu6, single oral dose, tumors 2 hours post dosage), the “TED50, total effective dose to inhibit 50% pSMAD” value is listed as 15.6 mg/kg. In addition, in series [5] (Calu6 time course, single oral dose), the maximum plasma exposure result is reported as “up to 6 μM”.

The values above are taken from paper PMC5805504 (Oncotarget, 2017).
